Experiments:
[1] = system: bleomycin-induced pulmonary fibrosis; experiment: Effect on lung morphology following bleomycin-induced pulmonary fibrosis (histology, Masson's Trichrome staining); format: in vivo, Male Wistar rats; settings: bleomycin 10 U/kg intratracheal; daily oral treatment with 50 mg/kg, days 1-21; lungs removed 21 days after bleomycin; FIG. 1C
Method: (A) Effect of a representative compound on lung morphology following bleomycin-induced pulmonary fibrosis. Bleomycin sulfate (Bleomycin […]) was purchased from a local pharmacy. All experiments were performed in accordance with German guidelines for animal welfare, performed by persons certified to work with animals and approved by the responsible authorities. Male Wistar rats were intratracheally injected with Bleomycin sulfate (10 U/kg body weight in 300 μl saline) or saline alone (saline control) using a catheter (0.5 mm internal diameter, […]) through the nasal passage, following exposure to the anaesthetic Isofluorane for 5 minutes. The following day, the rats were orally treated with Example A (compound (12)) or saline suspended in 1 ml 0.1% Natrosol. Control rats were administered 1 ml 0.1% Natrosol (vehicle control). [table] 21 days following bleomycin instillation, the rats were killed with a lethal intraperitoneal injection of NarcorenTM (Pentobarbital Sodium, Rhone Merieux). The lungs were then removed, blotted dry and half was snap frozen in liquid nitrogen and stored at -80° C. The other half was fixed in 4% formalin for subsequent paraffin embedding and histology. […] Collagen deposition was assessed using Masson's Trichrome staining.

[2] = system: procollagen I gene expression; experiment: Expression of fibrotic marker genes following bleomycin-induced pulmonary fibrosis (real time PCR, lung): procollagen I; format: in vivo, Male Wistar rats; settings: bleomycin 10 U/kg intratracheal; daily oral treatment with 50 mg/kg, days 1-21; lung RNA at day 21; vs bleomycin + vehicle; FIG. 2
Method: (§1) All experiments were performed in accordance with German guidelines for animal welfare, performed by persons certified to work with animals and approved by the responsible authorities. Male Wistar rats were intratracheally injected with Bleomycin sulfate (10 U/kg body weight in 300 μl saline) or saline alone (saline control) using a catheter (0.5 mm internal diameter, […]) through the nasal passage, following exposure to the anaesthetic Isofluorane for 5 minutes. The following day, the rats were orally treated with Example A (compound (12)) or saline suspended in 1 ml 0.1% Natrosol. Control rats were administered 1 ml 0.1% Natrosol (vehicle control).
(§2) 21 days following bleomycin instillation, the rats were killed with a lethal intraperitoneal injection of Narcoren™ (Pentobarbital Sodium, Rhone Merieux). The lungs were then removed, blotted dry and half was snap frozen in liquid nitrogen and stored at −80° C. The other half was fixed in 4% formalin for subsequent paraffin embedding and histology.
(§3) (B) Effect of a representative compound on expression of fibrotic marker genes following bleomycin-induced pulmonary fibrosis.
(§4) One part of the frozen lung tissue dedicated to investigation of gene expression was cut into small pieces using a sterile scalpel blade. […] The concentration of each sample was then measured using a spectrophotometer. […]

[3] = system: fibronectin gene expression; experiment: Expression of fibrotic marker genes following bleomycin-induced pulmonary fibrosis (real time PCR, lung): fibronectin; format: in vivo, Male Wistar rats; settings: bleomycin 10 U/kg intratracheal; daily oral treatment with 50 mg/kg, days 1-21; lung RNA at day 21; vs bleomycin + vehicle; FIG. 3
Method: as §1, §2, §3, §4

Row | SMILES | melting point [°C] | lung fibrosis (lung morphology, collagen deposition by Masson's Trichrome staining) [1] | expression of fibrotic marker genes: procollagen I (normalized to 18S) [2] | expression of fibrotic marker genes: fibronectin (normalized to 18S) [3]
1 | COC(=O)c1ccc2c(c1)NC(=O)/C2=C(\Nc1ccc(C(=O)N2CCN(C)[C@@H](C)C2)cc1)c1ccccc1 [(60), (S)-3-(Z)-[1-{4-[(3,4-dimethyl-piperazin-1-yl)-carbonyl]-phenylamino}-1-phenyl-methylidene]-6-methoxycarbonyl-2-indolinone] | 265 to 266 |  |  | 
2 | COC(=O)c1ccc2c(c1)NC(=O)/C2=C(\Nc1ccc(C(=O)N2CCN(C)CC2)cc1)c1ccccc1 [Example A, methyl 3-(Z)-[1-{4-[(4-methyl-piperazin-1-yl)-carbonyl]-phenylamino}-1-phenyl-methylidene]-2-indolinone-6-carboxylate] |  | nearly complete reversal of lung fibrosis | significant (p<0.0001) inhibition | significant (p<0.0001) inhibition
